Data as given in ChEMBL document CHEMBL1201862, “PubChem BioAssay data set” (2004).
Active and inactive are the calls of the source. Rule as the data show it, for most assays here: actives have a measured EC50 and inactives only a lower limit.

Tests used:
[1] = target: T1, Carboxy-terminal domain RNA polymerase II polypeptide A small phosphatase 1 (Homo sapiens, UniProt Q9GZU7); assay: CTDSP1 inhibitors, concentration-response, biochemical, absorbance readout, ultra-high-throughput screen actives (AID 540297); type: functional
T1 sequence (Q9GZU7 whole entry): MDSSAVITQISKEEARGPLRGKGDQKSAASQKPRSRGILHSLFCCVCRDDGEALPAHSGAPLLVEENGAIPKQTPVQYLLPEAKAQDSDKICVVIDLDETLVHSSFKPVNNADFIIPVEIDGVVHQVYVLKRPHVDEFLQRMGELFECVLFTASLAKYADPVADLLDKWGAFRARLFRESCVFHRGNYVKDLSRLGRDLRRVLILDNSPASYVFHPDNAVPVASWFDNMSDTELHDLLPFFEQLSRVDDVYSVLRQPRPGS

BJ [2] = assay: cells; type: functional, cell-based; settings: Homo sapiens
[3] = DRD fibroblast viability loss – cell-based, non-viral oncogenic, luminescence, dose response (AID 1934); type: functional; settings: Homo sapiens
BJ [4] = assay: BJ-TERT fibroblast viability loss – cell-based, RAS-independent, luminescence, dose response (AID 1933); type: functional; settings: Homo sapiens
BJ [5] = assay: BJ-TERT-LT-ST fibroblast viability loss – cell-based, RAS-independent, luminescence, dose response (AID 1935); type: functional; settings: Homo sapiens;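 also: BJ fibroblasts immortalized with TERT plus LT and ST oncogenes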
[6] = target: T2, Zinc finger protein mex-5 (Caenorhabditis elegans, UniProt Q9XUB2); assay: potency of MEX-5 RNA-binding blockers – biochemical, C. elegans, fluorescence polarization, dose response (AID 1960)
T2 sequence (Q9XUB2 whole entry): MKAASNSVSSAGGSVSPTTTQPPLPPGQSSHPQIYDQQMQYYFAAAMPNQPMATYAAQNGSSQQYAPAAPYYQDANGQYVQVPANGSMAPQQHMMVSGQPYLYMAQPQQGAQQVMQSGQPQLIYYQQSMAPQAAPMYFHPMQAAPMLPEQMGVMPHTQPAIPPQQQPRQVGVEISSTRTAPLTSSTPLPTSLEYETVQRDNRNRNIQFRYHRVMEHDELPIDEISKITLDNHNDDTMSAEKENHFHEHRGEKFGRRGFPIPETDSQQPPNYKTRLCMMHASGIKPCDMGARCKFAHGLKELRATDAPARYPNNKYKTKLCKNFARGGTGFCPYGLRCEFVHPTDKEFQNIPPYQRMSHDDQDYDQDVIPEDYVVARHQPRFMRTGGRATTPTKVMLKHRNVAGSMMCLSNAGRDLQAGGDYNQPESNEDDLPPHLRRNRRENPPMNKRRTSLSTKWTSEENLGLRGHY

[7] = target: T3, RNA-binding protein pos-1 (Caenorhabditis elegans, UniProt G5EF15); assay: disruptors of C. elegans POS-1 RNA interaction – biochemical, fluorescence polarization, dose response (AID 1964);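 also: purified POS-1 fused to maltose binding protein made in E. coli; potency of compounds blocking POS-1 binding to fluorescent RNA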
T3 sequence (G5EF15 whole entry): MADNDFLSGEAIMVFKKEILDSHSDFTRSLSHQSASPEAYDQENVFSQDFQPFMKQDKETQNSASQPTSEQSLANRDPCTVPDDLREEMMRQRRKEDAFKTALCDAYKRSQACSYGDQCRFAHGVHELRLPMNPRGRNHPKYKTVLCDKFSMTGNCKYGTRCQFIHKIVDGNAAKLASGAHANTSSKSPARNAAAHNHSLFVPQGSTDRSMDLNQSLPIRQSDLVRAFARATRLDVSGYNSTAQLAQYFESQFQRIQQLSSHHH

[8] = tested on: Streptococcus sp. 'group A'; assay: Streptococcus pyogenes SK(-)GAS viability under kanamycin – luminescence, BacTiterGlo, confirmation, counter-screen for streptokinase expression inhibitor project, dose response (AID 1900); type: functional, organism-based
Protein skinhead-1 = target: T4, Protein skinhead-1 (Caenorhabditis elegans, UniProt P34707); type: functional
T4 sequence (P34707 whole entry): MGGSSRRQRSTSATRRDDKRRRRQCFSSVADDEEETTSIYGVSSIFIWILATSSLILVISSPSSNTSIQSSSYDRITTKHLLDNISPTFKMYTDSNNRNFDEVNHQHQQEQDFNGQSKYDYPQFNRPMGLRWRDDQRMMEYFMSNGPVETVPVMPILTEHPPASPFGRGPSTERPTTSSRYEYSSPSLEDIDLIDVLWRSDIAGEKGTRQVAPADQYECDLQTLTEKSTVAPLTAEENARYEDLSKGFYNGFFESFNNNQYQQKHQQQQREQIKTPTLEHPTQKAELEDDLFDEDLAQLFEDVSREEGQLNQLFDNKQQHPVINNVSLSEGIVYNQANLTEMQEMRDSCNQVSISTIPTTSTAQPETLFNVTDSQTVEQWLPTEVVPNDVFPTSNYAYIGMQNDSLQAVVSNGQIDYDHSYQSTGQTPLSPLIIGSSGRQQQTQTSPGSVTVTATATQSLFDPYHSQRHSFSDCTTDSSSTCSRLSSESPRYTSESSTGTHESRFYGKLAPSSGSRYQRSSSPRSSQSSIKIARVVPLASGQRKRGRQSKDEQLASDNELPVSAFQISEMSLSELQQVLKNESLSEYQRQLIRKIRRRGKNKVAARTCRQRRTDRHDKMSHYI

Streptokinase A = target: T5, Streptokinase A (Streptococcus pyogenes serotype M1, UniProt P10520); assay: viability-normalized secreted streptokinase activity reduction – plasminogen activation absorbance, OD405, dose response (AID 1914); type: functional, Streptococcus pyogenes M1 GAS;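 also: secreted streptokinase activity via plasminogen activation per viability signal from cell pellet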
T5 sequence (P10520 whole entry): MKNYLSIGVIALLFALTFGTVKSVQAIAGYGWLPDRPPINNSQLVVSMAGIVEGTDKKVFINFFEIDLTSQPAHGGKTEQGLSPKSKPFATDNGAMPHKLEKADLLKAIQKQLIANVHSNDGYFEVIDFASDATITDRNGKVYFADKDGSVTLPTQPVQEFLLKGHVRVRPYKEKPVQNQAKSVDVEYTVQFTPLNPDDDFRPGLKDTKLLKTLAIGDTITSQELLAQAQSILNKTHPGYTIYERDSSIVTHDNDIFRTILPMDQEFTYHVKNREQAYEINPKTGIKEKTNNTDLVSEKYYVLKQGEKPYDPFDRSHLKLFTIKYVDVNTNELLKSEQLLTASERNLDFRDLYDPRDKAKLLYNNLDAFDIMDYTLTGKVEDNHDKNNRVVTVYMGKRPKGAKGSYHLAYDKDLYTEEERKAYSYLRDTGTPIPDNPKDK

Streptococcus = assay: GAS UMAA2166 growth inhibition – luminescence, BacTiterGlo, counter-screen for streptokinase expression inhibitor project, dose response (AID 1915); type: functional, organism-based;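 also: potency for reduction of bacterial viability or growth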
INS1 = assay: INS-1E survival protection against cytokine death – cell-based, luminescence, retest, dose response (AID 449756); type: functional; settings: Rattus norvegicus;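 also: cell death triggered by IL-1 beta plus TNF-alpha plus IFN-gamma mixture; protective hits raise ATP signal compared with cytokine alone wells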
Paired box protein Pax-8 = Paired box protein Pax-8 (Homo sapiens, UniProt Q06710); assay: PAX8 transcriptional activity inhibition in RMG-I – RMG-I cells, luciferase, cherry-pick, dose response (AID 687027); type: functional, cell-based;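 also: luciferase reporter driven by Pax8 target thyroperoxidase promoter measured by SteadyGlo luminescence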
Sequence of Paired box protein Pax-8 (Q06710 whole entry): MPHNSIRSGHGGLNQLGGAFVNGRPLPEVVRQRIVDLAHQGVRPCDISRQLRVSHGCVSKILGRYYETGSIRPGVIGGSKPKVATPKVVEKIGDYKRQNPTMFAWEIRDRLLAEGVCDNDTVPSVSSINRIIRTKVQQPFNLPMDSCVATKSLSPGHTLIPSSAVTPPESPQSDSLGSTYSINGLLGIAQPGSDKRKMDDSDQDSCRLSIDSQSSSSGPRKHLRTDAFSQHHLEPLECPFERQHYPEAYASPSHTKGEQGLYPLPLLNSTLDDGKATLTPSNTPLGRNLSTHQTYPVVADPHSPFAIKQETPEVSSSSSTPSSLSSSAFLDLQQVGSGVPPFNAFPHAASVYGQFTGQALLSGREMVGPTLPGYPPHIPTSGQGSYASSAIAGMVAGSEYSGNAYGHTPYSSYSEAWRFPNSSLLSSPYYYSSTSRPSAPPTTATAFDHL

CCOc1ccc(C(=O)Nc2ccc(NC(=O)c3ccccc3)c(C)c2)cc1[N+](=O)[O-]
IC50 [1]: 5.03 µM (active)

Cc1nc([N+](=O)[O-])c(Br)n1CC(=O)c1cccc([N+](=O)[O-])c1
EC50 (BJ [2]): > 150 µM (not active) | EC50 [3]: > 150 µM (not active) | EC50 (BJ [4]): > 150 µM (not active) | EC50 (BJ [5]): > 150 µM (inconclusive)

COc1ccc(C2C(C#N)=C(N)OC3=C2C(=O)CCC3)c(OC)c1OC (stereo unspecified)
EC50 [6]: > 300 µM (not active) | EC50 [7]: > 300 µM (not active)

CCOc1ccc2nc(NC(=O)CN3CCC(n4nnc5cc(C(F)(F)F)ccc54)CC3)sc2c1
EC50 [8]: 68.6 µM (active) | IC50 (Protein skinhead-1): > 100 µM (inactive) | EC50 (Streptokinase A): > 150 µM (not active) | EC50 (Streptococcus): > 150 µM (not active)

c1ccc(-c2cn3c(n2)-c2ccccc2C3)cc1
EC50 (BJ [2]): 14.3 µM (active) | EC50 [3]: 11.6 µM (active) | EC50 (BJ [4]): 14.9 µM (active) | EC50 (BJ [5]): > 150 µM (inconclusive)

O=C1c2ccccc2C(=O)N1Nc1ccc([N+](=O)[O-])cc1[N+](=O)[O-]
IC50 [1]: 16.9 µM (active)

Cc1ccc2[nH]c(/C(C#N)=C/c3ccc(-c4cccc([N+](=O)[O-])c4)o3)nc2c1
IC50 [1]: 6.06 µM (active)

CC(C)(C)OC(=O)NCCCC1=CC2=CC(=O)C(C)(OC(=O)c3ccc(Cl)nc3)C(=O)C2=CO1 (stereo unspecified)
EC50 [6]: 20 µM (active) | EC50 [7]: 17.2 µM (active)

Cc1ccc(Oc2nc(-c3ccccn3)nc3ccccc23)cc1
EC50 [8]: 8.8 µM (active) | EC50 [6]: 6.96 µM (active) | AC50 (INS1): 1.78 µM (active) | EC50 [7]: > 300 µM (inconclusive) | EC50 (Streptokinase A): > 150 µM (not active) | EC50 (Streptococcus): > 150 µM (not active)

COc1cc2nc(C3CCC3)nc(N3CCN(c4ccccc4OC)CC3)c2cc1OC
AC50 (Paired box protein Pax-8): 18.9 µM (active)
